“And” between values parts separate entries of the source, which are not always exact repeats. Equal entries are not always repeated.
Experiments:
[1] = tested on: CaSki cells; test: Monolayer assay using Sulphorhodamine B (SRB) staining, CaSki; format: cell-based, human
[2] = tested on: SARS-CoV-2; test: microbe, parasite or virus in culture; format: cell-based; settings: for % Inhibition of SARV-CoV-2 virus activity: 1.25 μM, n4
[3] = tested on: CaSki cells; test: Cell cycle analysis using Propidium-Iodide staining (flow cytometry); format: cell-based, human; settings: 48 hour incubation
Experimental: Propidium-Iodide (PI) DNA staining is performed to facilitate cell cycle analysis. For PI-DNA staining, fixed cells and eventually antibody-stained cells are resuspended in 450 μl of PBS (per 10^6 cells) and incubated with 100 μg/ml RNase (stock 1 mg/ml, in PBS) for 10 minutes at 37° C. Cells are then incubated with 5 μg/106 cells of PI (stock 1 mg/ml in PBS) for 10 minutes at room temperature. Samples are stored at 4° C. until CF analysis.
CaSki cells were incubated with various compounds and cell cycle distribution of the cells was assessed using Propidium-Iodide staining.
In order to analyze the cytostatic versus the cytotoxic effect of OC compounds, cell cycle profiles were analyzed in vitro after 48 hour incubations using Flow Cytometry as a read out. For this a cell cycle analysis from selected OC E7 degrader compounds was conducted in CaSki cells. Using 6 well plates, 1.5×10^5 cells were seeded for each well and grown over night at 37° C. 5% CO2. For analysis of the cell cycle behavior, cells were analyzed in the presence of propidium Iodide (PI^−) by flow cytometry (FC). Briefly, cells were detached by trypsin digestion, all supernatants were included in the analysis, and fixed with 70% ice cold ethanol and stored at 4° C. until FC analysis using P1^− staining (1 mg/ml). At least 7000 events were acquired for each sample.

[4] = tested on: human cervical carcinoma (CaSki) xenograft; test: Antitumor efficacy on CaSki human cervical carcinoma xenograft model; format: in vivo, nude mice; settings: for % TGI (Day 44), percentage tumor growth inhibition with respect to controls: OC246/OC974 2 mg/kg os
Experimental: The aim of this study was to assess the in vivo efficacy of OC246 and OC974 on a human cervical carcinoma (CaSki) xenograft model in nude mice. OC246 and OC974 were administered oral once daily for four times with three days off, for three cycles at 2 mg/kg/dose. Cisplatin (CDDP) was used as a reference compound with three weekly intravenous (q7dx3) administrations of 6 mg/kg.

[5] = target: HPV16 E7 protein (Human papillomavirus type 16, UniProt P03129); format: cell-based; settings: for % Dad: adjusted degradation, CHX steady state set to 100%, Table 2 screen
Sequence of HPV16 E7 protein (P03129 whole entry): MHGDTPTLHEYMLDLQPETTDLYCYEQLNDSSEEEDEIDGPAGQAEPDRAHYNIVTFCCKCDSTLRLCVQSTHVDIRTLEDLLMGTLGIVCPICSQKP

For CN1CCC(CN2C(=O)c3ccccc3[C@@H](C(=O)Nc3cccc(N4CCN(C)CC4)c3)[C@@H]2c2ccc(C(F)(F)F)cc2)CC1 (relative stereo) [OC974, rel-(3R,4R)-N-(3-(4-methylpiperazin-1-yl)phenyl)-2-((1-methylpiperidin-4-yl)methyl)-1-oxo-3-(4-(trifluoromethyl)phenyl)-1,2,3,4-tetrahydroisoquinoline-4-carboxamide], the EC50 ([1]; Homo sapiens, Ca-Ski, read-out: EC50 mean [nM]) was 1550 nM, the inhibition at 1.25 µM ([2]; Severe acute respiratory syndrome coronavirus 2, n4, read-out: % Inhibition of SARV-CoV-2 virus activity) was 54.3% and the “G1/5 μM” value ([3]; 5 μM, % cells in G1, no treatment 53.3) was 49.6%. The “G2/5 μM” value ([3]; 5 μM, % cells in G2, no treatment 15.6) was 9.9%, the “A*/5 μM (Apoptosis as measured from total SUB G1 content)” value ([3]; 5 μM, no treatment 15.0) was 19.5% and the “G1/10 μM” value ([3]; 10 μM, % cells in G1, no treatment 53.3) was 8.7%. The “G2/10 μM” value ([3]; 10 μM, % cells in G2, no treatment 15.6) was 0.8%, the “A*/10 μM (Apoptosis as measured from total SUB G1 content)” value ([3]; 10 μM, no treatment 15.0) was 82.9% and 81.8% and the “Tumor Volume Day 44 (mm^3 ± SD)” value ([4]; OC246/OC974 2 mg/kg os daily 4 x week 3 cycles, CDDP 6 mg/kg i.v. q7dx3, n = 7, control 1099 ± 503) was 307 ± 171 mm^3. The “% TGI (Day 44), percentage tumor growth inhibition with respect to controls” value ([4]; CDDP 6 mg/kg i.v. q7dx3) was 63.9%, the “Δ% Body Weight” value ([4]; between first day of treatment (day 20) and Day 44, control +4.9) was “+1.1%” and the “Δ% on Day 44” value ([4]; same schedules, control 100) was 23%.
COc1ccc2c(c1)C(=O)N(CC1CCN(C)CC1)[C@@H](c1ccc(C(F)(F)F)cc1)[C@@H]2C(=O)Nc1cccc(N2CCN(C)CC2)c1 (relative stereo) [VS977, rel-(3R,4R)-7-methoxy-N-(3-(4-methylpiperazin-1-yl)phenyl)-2-((1-methylpiperidin-4-yl)methyl)-1-oxo-3-(4-(trifluoromethyl)phenyl)-1,2,3,4-tetrahydroisoquinoline-4-carboxamide] was tested, and the “SRB anti-neoplastic effect compared among VS035, VS977, VS978, OC969” value ([1]; CaSki, Test 21, FIG. 12) was “strongest effect”.
With [NH2][Pt]([NH2])([Cl])[Cl] [CDDP, Cisplatin, reference compound] the “% TGI (Day 44), percentage tumor growth inhibition with respect to controls” value ([4]; CDDP 6 mg/kg i.v. q7dx3) was 79.2%.
With C[C@@H]1C[C@@H]([C@H](O)CC2CC(=O)NC(=O)C2)C(=O)[C@@H](C)C1 [CHX, Cycloheximide, reference compound] the “% Dab” value ([5]; CaSki cells, 10 μM, four hours, CHX set to 100%) was 100% and the “Measured MFI (mean fluorescence intensity) of E7 signal” value ([5]; CaSki cells, 10 μM, four hours, vehicle T 8.06) was 1.71.
For COc1ccc2cc1Oc1ccc(cc1)C[C@H]1c3c(cc4c(c3Oc3cc5c(cc3OC)CCN(C)[C@@H]5C2)OCO4)CCN1C [Cepharantin], the “% Inhibition of SARV-CoV-2 virus activity” value (“% Inhibition” for short) [2] was 2.32%.
In the case of c1c2c(cc3c1OCO3)-c1cc3ccc4c(c3c[n+]1CC2)OCO4 [Coptisin], the “% Inhibition” value [2] is reported as 98.97%.
In the case of CS(=O)(=O)O.Cc1c(O)cccc1C(=O)N[C@@H](CSc1ccccc1)[C@H](O)CN1C[C@H]2CCCC[C@H]2C[C@H]1C(=O)NC(C)(C)C [Neifinavir-Mesylat], the “% Inhibition” value [2] is reported as 9.49%.
In the case of Cc1ccc(CN2C(=O)c3ccccc3C(C(=O)NCc3ccc(Cl)cc3)C2c2ccc(Cl)cc2)cc1 (stereo not drawn) [OC253], the “% Dad” value [5] is reported as 0%.
With Cc1ccc(CN2C(=O)c3ccccc3C(C(=O)NCc3ccc(C(C)C)cc3)C2c2ccc(Cl)cc2)cc1 (stereo not drawn) [OC254] the “% Dad” value [5] was 16%.
With CCNC(=O)N1CCN(C(=O)C2c3ccccc3C(=O)N(Cc3ccc(C)cc3)C2c2ccc(Cl)cc2)CC1 (stereo not drawn) [OC257] the “% Dad” value [5] was 12%.
With CCC(=O)N1CCN(c2ccc(-n3c(=O)ccc4cnc5ccc(-c6cnc7ccccc7c6)cc5c43)cc2C(F)(F)F)CC1 [Torin1] the “% Inhibition” value [2] was 7.00%.
For Nc1ccc(-c2ccc3ncc4ccc(=O)n(-c5cccc(C(F)(F)F)c5)c4c3c2)cn1 [Torin2], the “% Inhibition” value [2] was 1.46%.

— patent US20260151384A1, “ISOQUINOLINE DERIVATIVES AS PROTEIN DEGRADERS, E7 DEGRADERS, ANTIVIRALS, TUMOR THERAPEUTICS AND IMMUNE SUPPRESSIVES” (priority 2022, published 2026)
